# What was measured:
# [1] = test system: Botrytis cinerea; experiment: In vitro fungal bioassay on amended PDA, fungal ring diameter; assay type: cell-based; settings: fungicide at EC50 concentration, 24° C., 96 hours
# [2] = test system: Rhizoctonia solani; experiment: as above; assay type: cell-based; settings: fungicide at EC50 concentration, 24° C., 96 hours
# [3] = test system: Sclerotinia sclerotiorum; experiment: as above; assay type: cell-based; settings: fungicide at EC50 concentration, 24° C., 96 hours
# [4] = test system: Macrophomina phaseoli; experiment: as above; assay type: cell-based; settings: fungicide at EC50 concentration, 24° C., 96 hours
# [5] = test system: Fusarium graminearum; assay type: cell-based; settings: fungicide at EC50 concentration, PDA, 24° C., 96 hours
# [6] = test system: Pythium irregulare; experiment: In vitro fungal bioassay on amended PDA, fungal ring diameter; assay type: cell-based; settings: fungicide at EC50 concentration, 24° C., 96 hours
# [7] = test system: Fall armyworms; experiment: Insecticide leaf-dip bioassay on spinach squares, percent killed; assay type: in vivo, Spodoptera frugiperda
# Protocol: In this example, a ten replicated in vitro bioassay was conducted to understand the insecticide compatibilities of insecticide compositions with supramolecular host or guest chemistries. This example utilized a common insecticide, chlorantraniliprole at various application rates to understand the impact of supramolecular chemistry. Chlorantraniliprole is an insecticide active ingredient found in Coragen® insecticide, Ferterra® insecticide, and Acelepryn G® insecticide among others. Chlorantraniliprole, also known as Rynaxypyr, is an insecticide belonging to the chemical group, diamides, with a group 28 mode of action. Chlorantraniliprole opens muscular calcium channels (particularly the ryanodine receptor), rapidly causing paralysis and ultimately death of sensitive species, those being of the order of Lepidoptera and some other Coleoptera, Diptera, and Isoptera species.
# A 2x factorial was used for ppm dosages to test with those being 0.005, 0.01, 0.02, 0.04, and 0.08 ppm of chlorantraniliprole. The chlorantraniliprole was sourced from Millipore Sigma, CAS Number: 500008-45-7, with the reference material being the material used for this example. The treatments were 0.005, 0.01, 0.02, 0.04, and 0.08 ppm of chlorantraniliprole as control. The supramolcular compositions were screened at the same rates of chlorantraniliprole with the addition of 23% SymMAX™ supramolecular host chemistry to the active (i.e. 0.08 ppm of active would have 0.0184 ppm 23% SymMAX™ supramolecular host chemistry). SymMAX™ supramolecular host chemistry was sourced from Shotwell Hydrogenics. The insects used for this experiment were Fall armyworms, Spodoptera frugiperda, sourced from Benzon Research of Pennsylvania. Eggs were reared to first instar at 23° C. with a noctuid diet also prepared by Benzon research.
# Treatment solutions were prepared by making a stock solution of chlorantraniliprole by dissolving 0.0056 grams of chlorantraniliprole into 49.98 grams of acetone to make a 112 ppm stock solution. The stock solution was diluted to 11 ppm to make the appropriate treatment rates and to make the supramolecular compositions. The 11 ppm stock solution of the control and composition was diluted to 0.005, 0.01, 0.02, 0.04, and 0.08 ppm by diluting to a 100 gram solution of water for the leaf dipping.
# Treatments were applied to 1-inch squares of spinach that were dipped in each treatment solution and allowed to dry at room temperature at 20° C. for 2 hours before 5 to 6 fall armyworms were added to a petri dish with filter paper and 1.7 mL of water. Each petri dish represents one repetition of the application and the number of live worms added were recorded on each petri dish and counted at 24 and 48 hours.
smiles,measurement,setting,value
"FC(F)C(F)(F)OCC(Cn1cncn1)c1ccc(Cl)cc1Cl (stereo not shown) [Tetraconazole, tetraconazole]",FUNGAL RING DIAMETER (mm) FOR FLUXAPYROXAD,[1],49.988 mm
same,FUNGAL RING DIAMETER (mm) FOR TETRACONAZOLE,[1],65.2 mm
same,FUNGAL RING DIAMETER (mm) FOR FLUXAPYROXAD,[2],54.377 mm
same,FUNGAL RING DIAMETER (mm) FOR TETRACONAZOLE,[2],74.33 mm
same,FUNGAL RING DIAMETER (mm) FOR FLUXAPYROXAD,[3],65.41 mm
same,FUNGAL RING DIAMETER (mm) FOR TETRACONAZOLE,[3],56.96 mm
same,FUNGAL RING DIAMETER (mm) FOR FLUXAPYROXAD,[4],66.979 mm
same,FUNGAL RING DIAMETER (mm) FOR TETRACONAZOLE,[4],61.298 mm
same,FUNGAL RING DIAMETER (mm) FOR FLUXAPYROXAD,[5],40.783 mm
same,FUNGAL RING DIAMETER (mm) FOR TETRACONAZOLE,[5],30.766 mm
same,FUNGAL RING DIAMETER (mm) FOR FLUXAPYROXAD,[6],89 mm
same,FUNGAL RING DIAMETER (mm) FOR TETRACONAZOLE,[6],85.93 mm
"CO/C=C(/C(=O)OC)c1ccccc1Oc1cc(Oc2ccccc2C#N)ncn1 [Azoxystrobin, azoxystrobin]",FUNGAL RING DIAMETER (mm) FOR AZOXYSTROBIN,[1],52.5 mm
same,FUNGAL RING DIAMETER (mm) FOR AZOXYSTROBIN,[2],48.4 mm
same,FUNGAL RING DIAMETER (mm) FOR AZOXYSTROBIN,[3],43.1 mm
same,FUNGAL RING DIAMETER (mm) FOR AZOXYSTROBIN,[4],40.2 mm
same,FUNGAL RING DIAMETER (mm) FOR AZOXYSTROBIN,[5],21.1 mm
same,FUNGAL RING DIAMETER (mm) FOR AZOXYSTROBIN,[6],44.3 mm
"CNC(=O)c1cc(Cl)cc(C)c1NC(=O)c1cc(Br)nn1-c1ncccc1Cl [Chlorantraniliprole Control, chlorantraniliprole]",PERCENT KILLED AT 24 HOURS,[7]; 0.005 ppm chlorantraniliprole,26.0%
same,PERCENT KILLED AT 48 HOURS,[7]; 0.005 ppm chlorantraniliprole,36.0%
same,PERCENT KILLED AT 24 HOURS,[7]; 0.01 ppm chlorantraniliprole,15.3%
same,PERCENT KILLED AT 48 HOURS,[7]; 0.01 ppm chlorantraniliprole,57.0%
same,PERCENT KILLED AT 24 HOURS,[7]; 0.02 ppm chlorantraniliprole,15.3%
same,PERCENT KILLED AT 48 HOURS,[7]; 0.02 ppm chlorantraniliprole,28.9%
same,PERCENT KILLED AT 24 HOURS,[7]; 0.04 ppm chlorantraniliprole,37.7%
same,PERCENT KILLED AT 48 HOURS,[7]; 0.04 ppm chlorantraniliprole,81.4%
same,PERCENT KILLED AT 24 HOURS,[7]; 0.08 ppm chlorantraniliprole,19.6%
same,PERCENT KILLED AT 48 HOURS,[7]; 0.08 ppm chlorantraniliprole,91.7%

# — US20230109010A1, “PESTICIDE COMPOSITIONS WITH SUPRAMOLECULAR STRUCTURES FOR AGRICULTURAL USE” (BPS JUST ENERGY TECHNOLOGY, LLC, priority 2020, published 2023)
